Consider six molecules from ChEMBL document CHEMBL3792365, “Dioxol and dihydrodioxin analogs of 2- and 3-phenylacetonitriles as potent anti-cancer agents with nanomolar activity against a variety of human cancer cells” (2016).

Common to all, as to format: functional
The test system of one experiment is NCI-H522. Put plainly: Growth inhibition of human NCI-H522 cells at 10 uM after 48 hrs by sulforhodamine B assay. As to conditions: NCI-H522, 48 h, values are per cent of control. For orientation: In SRB staining, fixed cells bind dye roughly in proportion to their protein.
The nature of experiment [1]: Growth inhibition of human UACC62 cells at 10 uM after 48 hrs by sulforhodamine B assay. The conditions noted are these: UACC-62, 48 h, values are per cent of control.
The test system of another experiment is MCF7. Briefly: Growth inhibition of human MCF7 cells at 10 uM after 48 hrs by sulforhodamine B assay. As to conditions: MCF7, 48 h, values are per cent of control.
The nature of experiment [2]: Growth inhibition of human HOP92 cells at 10 uM after 48 hrs by sulforhodamine B assay. The conditions noted are these: HOP-92, 48 h, values are per cent of control.
In another experiment the test system is Malme-3M. Put plainly: Growth inhibition of human MALME-3M cells at 10 uM after 48 hrs by sulforhodamine B assay. As to conditions: values are per cent of control.
The next experiment deals with CCRF-CEM. Briefly: Growth inhibition of human CCRF-CEM cells at 10 uM after 48 hrs by sulforhodamine B assay. As to conditions: values are per cent of control.
Experiment [3] is described as follows: Growth inhibition of human Hs 578T cells at 10 uM after 48 hrs by sulforhodamine B assay. The conditions noted are these: values are per cent of control.
A short description of experiment [4]: Growth inhibition of human OVCAR3 cells at 10 uM after 48 hrs by sulforhodamine B assay. The conditions noted are these: OVCAR-3, 48 h, values are per cent of control.
Experiment [5] can be described thus: Growth inhibition of human HCT15 cells at 10 uM after 48 hrs by sulforhodamine B assay. The conditions noted are these: HCT-15, 48 h, values are per cent of control.
Another experiment has as its system SR. Briefly: Growth inhibition of human SR cells at 10 uM after 48 hrs by sulforhodamine B assay. As to conditions: values are per cent of control.
Experiment [6] can be described thus: Growth inhibition of human HL-60(TB) cells at 10 uM after 48 hrs by sulforhodamine B assay. As to conditions: HL-60, 48 h, values are per cent of control.
Experiment [7] can be described thus: Growth inhibition of human PC3 cells at 10 uM after 48 hrs by sulforhodamine B assay. As to conditions: PC-3, 48 h, values are per cent of control.
A further experiment concerns T47D. Put plainly: Growth inhibition of human T47D cells at 10 uM after 48 hrs by sulforhodamine B assay. As to conditions: values are per cent of control.
The test system of the next experiment is NCI-H23. Briefly: Growth inhibition of human NCI-H23 cells at 10 uM after 48 hrs by sulforhodamine B assay. The conditions noted are these: NCI-H23, 48 h, values are per cent of control.
Experiment [8] can be described thus: Growth inhibition of human MOLT4 cells at 10 uM after 48 hrs by sulforhodamine B assay. The conditions noted are these: MOLT-4, 48 h, values are per cent of control.
A short description of experiment [9]: Growth inhibition of human IGROV1 cells at 10 uM after 48 hrs by sulforhodamine B assay. The conditions noted are these: IGROV-1, 48 h, values are per cent of control.
The nature of experiment [10]: Growth inhibition of human RPMI8226 cells at 10 uM after 48 hrs by sulforhodamine B assay. As to conditions: RPMI-8226, 48 h, values are per cent of control.
Experiment [11] is described as follows: Growth inhibition of human UACC257 cells at 10 uM after 48 hrs by sulforhodamine B assay. As to conditions: UACC-257, 48 h, values are per cent of control.
Experiment [12] in a line: Growth inhibition of human HCC2998 cells at 10 uM after 48 hrs by sulforhodamine B assay. As to conditions: HCC 2998, 48 h, values are per cent of control.

For `N#C/C(=C\c1ccc2c(c1)OCO2)c1ccc2c(c1)OCO2`, the growth, % of control at 10 µM in the experiment on NCI-H522 worked out at 76.4%; in experiment [1], 69.4%; in the experiment with MCF7, 23.9%; in experiment [2], 94.2%; in the experiment on Malme-3M, 69%; in the experiment on CCRF-CEM it was 73.2%. The growth, % of control at 10 µM in experiment [3] was 89.7%; in experiment [4], 71.7%; in experiment [5] it was 43.9%; in the experiment with SR, 26.2%; in experiment [6], 57.9%; in experiment [7], 70.2%. Also, the growth, % of control at 10 µM with T47D is 67.7%; in the experiment with NCI-H23, 83.2%; in [8], 67.7%; in [9] it was 66.1%; in experiment [10], 75.2%; in experiment [11], 80.2%. The same molecule came in with a growth, % of control at 10 µM in [12] of 72.3%.

Take `COc1ccc(/C=C(\C#N)c2ccc3c(c2)OCO3)cc1OC`: the growth, % of control at 10 µM in the experiment on NCI-H522 was determined as 94.5%; in experiment [1], 114%; in the experiment on MCF7, 87.2%; in experiment [2], 110%; with Malme-3M, 103%; in the experiment with CCRF-CEM it was 89.4%. In addition, the growth, % of control at 10 µM was found to be 114% in [3]; 109% in experiment [4]; 99.8% in [5]; 83% in the experiment on SR; 72% in [6]; 100% in experiment [7]. For the same molecule, the growth, % of control at 10 µM was determined as 88.7% in the experiment on T47D; 97.1% with NCI-H23; 85.2% in experiment [8]; 96.9% in experiment [9]; 96.9% in [10]; 118% in [11]. Besides, the growth, % of control at 10 µM in [12] was determined as 106%.

Consider `COc1ccc(/C=C(\C#N)c2ccc3c(c2)OCO3)cn1`, for which the growth, % of control at 10 µM in the experiment on NCI-H522 came out at 79.8%; in experiment [1] it was 79.9%; in the experiment on MCF7, 83.5%; in experiment [2], 64.9%; in the experiment on Malme-3M it was 90.6%; with CCRF-CEM it was 87.7%. Further, the growth, % of control at 10 µM was found to be 101% in [3]; 100% in experiment [4]; 78% in experiment [5]; 50.1% in the experiment with SR; 70.8% in experiment [6]; 77.9% in [7]. Moreover, the growth, % of control at 10 µM with T47D is 81%; in the experiment with NCI-H23 it was 93.7%; in experiment [8], 71.5%; in [9], 90.6%; in [10], 73.2%; in [11] it was 89.4%. The molecule also came in with a growth, % of control at 10 µM in experiment [12] of 93.2%.

On to `N#C/C(=C\c1cc(Br)cc(Br)c1)c1ccc2c(c1)OCO2`, for which the growth, % of control at 10 µM is 76.3% with NCI-H522; 85.4% in [1]; 82.3% with MCF7; 113% in experiment [2]; 84% with Malme-3M; 75.4% with CCRF-CEM. The growth, % of control at 10 µM in experiment [3] was determined as 112%; in experiment [4], 103%; in experiment [5], 92.6%; in the experiment on SR it was 79%; in experiment [6], 62.9%; in [7], 89.2%. The growth, % of control at 10 µM was 82% in the experiment on T47D; 91.5% in the experiment on NCI-H23; 66.6% in experiment [8]; 85.1% in experiment [9]; 76.6% in experiment [10]; 100% in [11]. In [12], this molecule displayed a growth, % of control at 10 µM of 90.7%.

As to `N#C/C(=C\c1ccc(Cl)cc1Cl)c1ccc2c(c1)OCO2`, the growth, % of control at 10 µM stood at 75.8% in the experiment on NCI-H522; 81.9% in experiment [1]; 110% with MCF7; 99.9% in experiment [2]; 76.4% with Malme-3M; 93.3% with CCRF-CEM. For the same molecule, the growth, % of control at 10 µM is 135% in [3]; 98.4% in [4]; 82.9% in experiment [5]; 68.7% in the experiment with SR; 87.3% in experiment [6]; 93.4% in experiment [7]. Also, the growth, % of control at 10 µM with T47D came out at 76.3%; with NCI-H23, 96.3%; in experiment [8] it was 79.2%; in [9], 97.9%; in experiment [10], 84.6%; in experiment [11] it was 93.8%. In experiment [12], the growth, % of control at 10 µM is 94.8%.

For the molecule `N#C/C(=C\c1cc(F)cc(F)c1)c1ccc2c(c1)OCO2`, the growth, % of control at 10 µM was 132% with NCI-H522; 106% in experiment [1]; 88.4% in the experiment on MCF7; 125% in experiment [2]; 116% in the experiment with Malme-3M; 97.7% in the experiment on CCRF-CEM. Also, the growth, % of control at 10 µM amounted to 122% in experiment [3]; 109% in experiment [4]; 99.4% in [5]; 84.6% with SR; 108% in experiment [6]; 101% in [7]. Besides, the growth, % of control at 10 µM was determined as 102% with T47D; 103% in the experiment on NCI-H23; 83.1% in [8]; 121% in experiment [9]; 94.7% in experiment [10]; 104% in experiment [11]. In experiment [12], this molecule returned a growth, % of control at 10 µM of 94.6%.
